Laboratory results: patent US20100105626A1, “Novel Analogues of Antimicrobial and Anticancer Peptide Synthesized and Produced from Gaegurin 5” (PROMEDITECH, INC, priority 2006, published 2010)
pIC50: −log10 of the molar value. Where no end group is shown, it is not given here.

Tests used:
Assay type in all cases: cell-based
[1] = system: A549 (lung cancer cell line)
Description: (§1) In order to confirm the anticancer activity of the analogues prepared by Example 1 on A549 (lung cancer cell line, ATCC, U.S.A.), A498 (kidney cancer cell line, Korean Cell Line Bank, Korea), HCT116 (colon carcinoma cell line, Korean Cell Line Bank, Korea), MKN45 (stomach cell line, Korean Cell Line Bank, Korea), NCI-H630 (liver cancer cell line, Korean Cell Line Bank, Korea), PC-3 (prostatic carcinoma cell line, Korean Cell Line Bank, Korea), SK-MEL-2 (skin cancer cell line, Korean Cell Line Bank, Korea) and SK-OV-3 (human solid cancer cell line, Korean Cell Line Bank, Korea), the standard microculture MTT method was performed with the procedure described in the literature (Angelina Quintero et al., J Pharm Pharmaceut Sci, Vol. 2, No. 3, pp 108-112, 1999; Ashtosh K. Pathak et al., J. Am Coll Nutr., Vol. 21, No. 5, pp 416-421, 2002). Each cell line was poured into 96 well microtiter plates and cultivated at 37° C. for 24 hrs. When the cell reached to exponential growth phase, the test sample was added to each plates and each cell was inoculated into the plates added with both of dissolved and non-dissolved DMSO to culture for 3 days. 50 μl of MTT (2 mg/ml) (M5655, SIGMA, U.S.A.) was added thereto and cultured for 3 hrs. The supernatant was removed and the wells were shaken weakly to dissolve formazan crystals. 150 μl of DMSO was added thereto. The non-treated well with cell was set to blank and the wells non-treated with drug were set to standard based on the cell viability. The UV absorbance was measured by microplate reader (SAFIRE, Tecan, Austria) to calculate the cell viability at 570 nm. The inhibition rate of cell growth was calculated by following Math FIG. 1. inhibition rate of cell growth (%)={1−(absorbance of treated cells/absorbance of non-treated cells)}×100 Math Figure 1 The IC value of each cell was calculated by the amount of drug causing to 50% reduction of the absorbance comparing with that of non-treated cells.

[2] = system: SK-OV-3 (human solid cancer cell line)
Description: as §1

[3] = system: MKN45 (stomach cell line)
Description: as §1

[4] = system: HCT116 (colon carcinoma cell line)
Description: as §1

[5] = system: SK-MEL-2 (skin cancer cell line)
Description: as §1

erythrocyte = system: erythrocyte
Method: 3 ml of blood sample collected from healthy male was mixed with PBS (phosphate buffered saline, isotonic solution) with a ratio of 1:1 (v/v), centrifuged to remove buffy coat and blood plasma and washed with physiological saline solution three times to isolate pure erythrocyte. The erythrocyte was suspended in 20 ml of PBS and pre-incubated in water bath at 37° C. for 15 mins. […] of peptide solution was mixed with […] of erythrocyte solution in order to prepare various mixed solution containing various final concentrations of the peptides, i.e., 100, 50, […] and the solution was incubated in water bath at 37° C. for 15 mins. The supernatant was centrifuged with centrifuge and 100 ml of the supernatant was diluted with ImI of PBS to determine its absorbance at 550 nm. The percentage of hemolysis (%) was determined from the relative attenuation of the absorbance of sample compared with that of the suspension treated with 0.2% Triton X-100.

Bacillus subtilis = experiment: Antimicrobial activity, MIC by standard broth microdilution; details: Gram-positive
Method: (§2) Antimicrobial activity was determined by the standard broth microdilution method by measuring the MIC values against diverse microorganisms. In brief, Luria-Bertani medium was used as a broth medium. 30 μl of sample (2 mg/ml) prepared from Example 1 and 270 μl of fluid medium were added to lane 1 well of 96-well microtiter plates and to remaining lanes of the wells, only 150 μl of medium was added thereto. 150 μl of sample solution in lane 1 was mixed with lane 2 to prepare diluted solution (×2). With similar diluting method to the above described method, serial dilution was performed to prepare 150 μl of diluted drug solution (×2) to the extent that the final drug concentration reached to the range from 1.6 to 200 μg/ml in respective well. 25 μl of the cell culture being grown to 10^6-10^8 colony forming unit/ml in 3 ml of broth was added to each well and the micro-titer plate was incubated for overnight at 37° C.

Proteus mirabilis = experiment: as above; details: Gram negative
Method: as §2

Klebsiella pneumoniae = experiment: as above; details: Gram negative
Method: as §2

Pseudomonas aeruginosa = experiment: as above; details: Gram negative
Method: as §2

Staphylococcus aureus = experiment: as above; details: Gram-positive
Method: as §2

Staphylococcus epidermis = experiment: as above; details: Gram-positive
Method: as §2

Shigella dysentariae = experiment: as above; details: Gram negative
Method: as §2

Escherichia coli = experiment: as above; details: Gram negative
Method: as §2

Salmonella typhimurium = experiment: as above; details: Gram negative
Method: as §2

Micrococcus luteus = experiment: as above; details: Gram-positive
Method: as §2

## FLWWLFKWAWK-NH2 [model 28, F-L-W-W-L-F-K-W-A-W-K]
[1]
  pIC50: 4.80
[2]
  pIC50: 4.84
[3]
  pIC50: 4.86
[4]
  pIC50: 4.83
[5]
  pIC50: 4.88

## FLGWLFKWASKVL-NH2 [W4,8-GGN5N13, F-L-G-W-L-F-K-W-A-S-K-V-L]
erythrocyte
  hemolytic activity (in words): potent hemolytic activity

## FLGWLFKWAWK-NH2 [model 27, F-L-G-W-L-F-K-W-A-W-K]
[5]
  pIC50: 4.85

## FLKWLFKWAKK-NH2 [model 26, F-L-K-W-L-F-K-W-A-K-K]
erythrocyte
  hemolytic activity (in words): much less hemolysis than the others
[1]
  pIC50: 4.84
[2]
  pIC50: 4.90
[4]
  pIC50: 4.83

## FLGWLFKWASK-NH2 (C-terminus assumed) [W4,8-GGN5N11]
Bacillus subtilis
  Minimal inhibitory concentration: 3.2 µg/mL
Proteus mirabilis
  Minimal inhibitory concentration: >200 µg/mL
Klebsiella pneumoniae
  Minimal inhibitory concentration: 50 µg/mL
Pseudomonas aeruginosa
  Minimal inhibitory concentration: >200 µg/mL
Staphylococcus aureus
  Minimal inhibitory concentration: 1.6 µg/mL
Staphylococcus epidermis
  Minimal inhibitory concentration: 3.2 µg/mL
Shigella dysentariae
  Minimal inhibitory concentration: 12.5 µg/mL
Escherichia coli
  Minimal inhibitory concentration: 50 µg/mL
Salmonella typhimurium
  Minimal inhibitory concentration: >200 µg/mL
Micrococcus luteus
  Minimal inhibitory concentration: 3.2 µg/mL
